The values below are quoted from earlier work in US20030004116A1, “Noni extract for prevention of disease” (priority 2001, published 2003).

One series deals with K-ras-NRK cells. Particulars: reversible when compound withdrawn.
In series [1] the test system is RSV-NRK cells expressing the src oncogene.

In the case of `COc1c(C=O)c(O)cc2c1C(=O)c1ccccc1C2=O` [Damnacathal], the “morphology and cytoskeletal structure” value in the series with K-ras-NRK cells is “induced normal morphology and cytoskeletal structure”. Further, the effect on cells result in series [1] is recorded as “no effect”.
